From patent US11311533B2, “Opioid receptor antagonist conjugate and use thereof” (SHANGHAI HANMAI BIO-PHARMA CO., LTD., priority 2016, dated 2022)
Where “and” joins values, the source holds several entries; their conditions need not be identical. Equal entries are not always repeated. Structures can show the parent of a compound that is named as a salt.

Columns and labels:
[1] = tested on: mice; experiment: Anti-constipation study: antagonizing the antidiarrheal effect of loperamide hydrochloride (castor oil diarrhea); assay type: in vivo
Protocol: The anti-constipation study experiment was completed by using the test of antagonizing the antidiarrheal effect of loperamide hydrochloride. The specific experiment process was: the mice were divided into groups randomly, eight mice each group, wherein one group was administered with 0.5 mL of castor oil by gavage, one group was administered with 2 mg/kg loperamide hydrochloride and 0.5 mL of castor oil by gavage, and conjugate test groups were respectively administered with Na1021 (300 nmol/kg), Na1029 (300 nmol/kg), Na1033 (300 nmol/kg) and Na1045 (600 nmol/kg) by gavage first, and then with 2 mg/kg loperamide and 0.5 mL castor oil by gavage.
The mice were divided into groups randomly, eight mice each group, wherein one group was administered with 0.5 mL of castor oil by gavage, one group was administered with 2 mg/kg loperamide and 0.5 mL castor oil by gavage, other groups were respectively administered with different doses of conjugate Na1029 first, then with 2 mg/kg loperamide hydrochloride and 0.5 mL castor oil by gavage.

[2] = tested on: mice; experiment: Mouse hot plate analgesia experiment (antagonism of morphine analgesia, blood-brain barrier study); conditions: for Average Pain Threshold after Administration (s) Mean ± SD: 60 minutes after administration; for Passage through the blood-brain barrier (concluded from antagonism of the analgesic effect of morphine): mouse hot plate, conjugate subcutaneous after morphine by gavage; for Difference between the pain threshold before and after administration (significance): before vs 60 minutes after administration, Na1037 and Na1041: high-dose groups
Protocol: Six conjugates Na1021, Na1029, Na1045, Na1037, Na1041, and Na1049 were subjected to mouse hot plate analgesia experiments for four times, respectively. In each experiment, mice (JOINN Laboratories (Suzhou)) were randomly divided into four groups (eight per group): one blank control group, one morphine control group, and two other groups which were administered with morphine by gavage first, and then low dose and high dose of the conjugates were subcutaneously injected respectively. The mice were put on a hot plate (55±0.1) ° C. before administration, and the time was recorded immediately. The duration from the beginning on the hot plate to the first hind paw licking was recorded as the reaction time of heat-pain sensation (i.e., pain threshold, the unit is second (s)). The pain threshold was set as 100% analgesia if there was no hind paw licking in 60 seconds. It was recorded as 60 seconds when the time exceeded 60 seconds to prevent burn of foot. The mice were again put on a (55±0.1) ° C. hot plate 60 minutes after the administration of drug and the reaction time of heat-pain sensation was recorded. […] The value of the pain thresholds before and after administration was compared and the percentage of increase in pain threshold was calculated according to the following formula to determine the effect of drug on antagonizing morphine analgesia. Percentage of increase in pain threshold=[(average heat pain threshold after administration−average pain threshold before administration)/average pain threshold before administration]×100%

[3] = biological target: OPRM1 (Mμ opioid receptor gene) receptor (Homo sapiens, UniProt P35372); experiment: cell-based; conditions: for inhibition at 10 µM: OPRM1, read-out: Inhibition rate (%) of highest concentration (mean ± standard deviation) (N = 2)
Protocol: Cell suspension was inoculated into a 384-well microplate at a density of 15,000 cells per well, and cultured in a 37° C./5% CO2 incubator for at least 18 hours before experiment.
Before the test, the conjugates to be tested was diluted with HBSS buffer (containing 20 mM HEPES) and prepared as 5× solution with a concentration five times of the test solution. […] The concentration of the corresponding control DMSO is 0.1%.
The protocol for preparing agonist detection: cells were inoculated into 384-well microplates, 20 μl of cell suspension per well (containing 15,000 cells); the plate was placed in 37° C./5% CO2 incubator to continue the culture; cells were taken out after 18 hours, and dye was added, 20 μl per well; the plate was incubated in 37° C./5% CO2 incubator for 1 hour and equilibrated at room temperature for 15 minutes; and 10 μl of 5× test solution of agonist was added to each well for RFU value detection.
The protocol for preparing inhibitor detection: cells were inoculated into 384-well microplates, 20 μl of cell suspension per well (containing 15,000 cells); the plate was placed in 37° C./5% CO2 incubator to continue the culture; cells were taken out after 18 hours; for the inhibitor detection, 20 μl of dye was added to the plate, and then 10 μl of prepared conjugate solution was added; the plate was incubated in 37° C./5% CO2 for 1 hour and equilibrate at room temperature for 15 minutes; 12.5 μl of 5× EC80 positive agonist was added for RFU value detection.
The 384-well microplate containing the conjugate solution (5× test concentration), cell plate and pipette tip box were placed in FLIPR (Molecule Devices), and the agonist detection program was run. The overall detection time of the instrument was 120 seconds. 10 μl of agonist was automatically added to the plate at the 21st second. […] (Molecule Devices), and the inhibitor detection program was run. The overall detection time of the instrument was 120 seconds. 12.5 μl of positive agonist was automatically added to the plate at the 21st second.

[4] = 4 μmol/kg subcutaneous + Morphine by gavage
[5] = 20 μmol/kg subcutaneous + Morphine by gavage

OPRM1 (Mμ opioid receptor gene) receptor, sequence (P35372 whole entry): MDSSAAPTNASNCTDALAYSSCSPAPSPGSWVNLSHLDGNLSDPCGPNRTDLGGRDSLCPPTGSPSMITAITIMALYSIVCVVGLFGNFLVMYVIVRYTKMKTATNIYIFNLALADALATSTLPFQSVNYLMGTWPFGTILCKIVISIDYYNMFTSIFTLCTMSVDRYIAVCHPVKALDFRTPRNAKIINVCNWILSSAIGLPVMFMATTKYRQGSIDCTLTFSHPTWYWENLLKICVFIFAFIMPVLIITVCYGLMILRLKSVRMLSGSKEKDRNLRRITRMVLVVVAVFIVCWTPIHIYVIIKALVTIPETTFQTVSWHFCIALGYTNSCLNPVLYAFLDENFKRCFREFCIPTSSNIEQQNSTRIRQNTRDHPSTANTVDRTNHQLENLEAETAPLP

With `CN(C)C(=O)C(CCN1CCC(O)(c2ccc(Cl)cc2)CC1)(c1ccccc1)c1ccccc1` [Loperamide Hydrochloride, loperamide hydrochloride, reference compound] the “Total Number of Diarrhea Times Six Hours after Administration” value (from here on “Total Number of Diarrhea Times Six Hours”) ([1]; Table 10: 2 mg/kg loperamide hydrochloride + 0.5 mL castor oil by gavage, no conjugate) was 10.88 ± 7.14 and the “Total Number of Diarrhea Times Six Hours” value ([1]; Table 11: 2 mg/kg loperamide + 0.5 mL castor oil by gavage, no conjugate) was 5.75 ± 3.69.
With `CN1CC[C@]23c4c5ccc(O)c4O[C@H]2[C@@H](O)C=C[C@H]3[C@H]1C5` [Morphine, morphine, reference compound] the “Average Pain Threshold after Administration (s) Mean ± SD” value ([2]; morphine control group, cut-off 60 s) was 53.25 ± 10.96 s and 52.00 ± 9.67 s and 38.5 ± 15.58 s and 39.00 ± 17.25 s and the “Average Pain Threshold before Administration (s) Mean ± SD” value ([2]; morphine control group, hot plate 55 °C) was 19.25 ± 5.57 s and 20.38 ± 3.93 s and 20.88 ± 4.91 s and 15.12 ± 6.38 s.
For `Oc1ccc2c3c1O[C@H]1[C@@H](OCCOCCOCCOCCO[C@H]4CC[C@@]5(O)[C@H]6Cc7ccc(O)c8c7[C@@]5(CCN6CC5CC5)[C@H]4O8)CC[C@@]4(O)[C@@H](C2)N(CC2CC2)CC[C@]314` [Nal021, PEG4-(6-α-naltrexol)2-ether], the IC50 [3] was 229 nM, the inhibition at 10 µM [3] was 100.3 ± 0.56% and the “Average Pain Threshold before Administration (s) Mean ± SD” value ([2]; 4.36 μmol/kg + Morphine group) was 20.63 ± 7.07 s. For the same compound, the “Percentage of Increase in Pain Threshold” value ([2]; 4.36 μmol/kg + morphine) was 172.66%, the “Average Pain Threshold after Administration (s) Mean ± SD” value ([2]; 4.36 μmol/kg subcutaneous + Morphine by gavage) was 56.25 ± 10.61 s and the “Average Pain Threshold before Administration (s) Mean ± SD” value ([2]; 21.8 μmol/kg + Morphine group) was 18.63 ± 4.60 s. The “Percentage of Increase in Pain Threshold” value ([2]; 21.8 μmol/kg + morphine) was 220.72%, the “Average Pain Threshold after Administration (s) Mean ± SD” value ([2]; 21.8 μmol/kg subcutaneous + Morphine by gavage) was 59.75 ± 0.71 s and the “Passage through the blood-brain barrier (concluded from antagonism of the analgesic effect of morphine)” value (“Passage through the blood-brain barrier” for short) [2] was “cannot pass through the blood-brain barrier”.
Compound `Oc1ccc2c3c1O[C@H]1[C@@H](OCCOCCOCCOCCOCCOCCO[C@H]4CC[C@@]5(O)[C@H]6Cc7ccc(O)c8c7[C@@]5(CCN6CC5CC5)[C@H]4O8)CC[C@@]4(O)[C@@H](C2)N(CC2CC2)CC[C@]314` [Nal025, PEG6-(6-α-naltrexol)2-ether] has an IC50 [3] of 185 nM and an inhibition at 10 µM [3] of 100.6 ± 0.48%.
Compound `Oc1ccc2c3c1O[C@H]1[C@H](OCCOCCOCCOCCOCCOCCO[C@@H]4CC[C@@]5(O)[C@H]6Cc7ccc(O)c8c7[C@@]5(CCN6CC5CC5)[C@H]4O8)CC[C@@]4(O)[C@@H](C2)N(CC2CC2)CC[C@]314` [Nal026, PEG6-(6-β-naltrexol)2-ether] has an IC50 [3] of 183 nM and an inhibition at 10 µM [3] of 100.5 ± 0.26%.
`Oc1ccc2c3c1O[C@H]1[C@@H](OCCOCCOCCOCCOCCOCCOCCOCCOCCOCCO[C@H]4CC[C@@]5(O)[C@H]6Cc7ccc(O)c8c7[C@@]5(CCN6CC5CC5)[C@H]4O8)CC[C@@]4(O)[C@@H](C2)N(CC2CC2)CC[C@]314` [Nal033, PEG10-(6-α-naltrexol)2-ether] was tested, and the IC50 [3] was 197 nM, the inhibition at 10 µM [3] was 99.1 ± 1% and the “Total Number of Diarrhea Times Six Hours” value ([1]; Table 10: 300 nmol/kg by gavage + Loperamide Hydrochloride + Castor Oil) was 15.25 ± 4.13.
For `COCCOCCOCCOCCOCCOCCO[C@H]1CC[C@@]2(O)[C@H]3Cc4ccc(O)c5c4[C@@]2(CCN3CC2CC2)[C@H]1O5` [Nal037, mPEG6-(6-α-naltrexol)-ether], the IC50 [3] was 225 nM, the inhibition at 10 µM [3] was 100.6 ± 0.34% and the “Average Pain Threshold before Administration (s) Mean ± SD” value ([2]; 4 μmol/kg + Morphine group) was 19.38 ± 5.21 s. For the same compound, the “Percentage of Increase in Pain Threshold” value ([2]; 4 μmol/kg + morphine) was 62.54%, the “Average Pain Threshold after Administration (s) Mean ± SD” value [2, 4] was 31.50 ± 11.83 s and the “Average Pain Threshold before Administration (s) Mean ± SD” value ([2]; 20 μmol/kg + Morphine group) was 20.5 ± 3.93 s. For the same compound, the “Percentage of Increase in Pain Threshold” value ([2]; 20 μmol/kg + morphine) was 1.85%, the “Average Pain Threshold after Administration (s) Mean ± SD” value [2, 5] was 20.88 ± 5.87 s and the “Difference between the pain threshold before and after administration (significance)” value [2] was “not significant”. For the same compound, the “Passage through the blood-brain barrier” value [2] was “can pass through the blood-brain barrier”.
With `COCCOCCOCCOCCOCCOCCOCCOCCO[C@H]1CC[C@@]2(O)[C@H]3Cc4ccc(O)c5c4[C@@]2(CCN3CC2CC2)[C@H]1O5` [Nal041, mPEG8-(6-α-naltrexol)-ether] the IC50 [3] was 210 nM, the inhibition at 10 µM [3] was 95.8 ± 1.86% and the “Average Pain Threshold before Administration (s) Mean ± SD” value ([2]; 4 μmol/kg + Morphine group) was 14.25 ± 1.75 s. For the same compound, the “Percentage of Increase in Pain Threshold” value ([2]; 4 μmol/kg + morphine) was 170.18%, the “Average Pain Threshold after Administration (s) Mean ± SD” value [2, 4] was 38.5 ± 14.74 s and the “Average Pain Threshold before Administration (s) Mean ± SD” value ([2]; 20 μmol/kg + Morphine group) was 16.88 ± 6.79 s. The “Percentage of Increase in Pain Threshold” value ([2]; 20 μmol/kg + morphine) was 30.33%, the “Average Pain Threshold after Administration (s) Mean ± SD” value [2, 5] was 22.00 ± 5.12 s and the “Difference between the pain threshold before and after administration (significance)” value [2] was “not significant”. For the same compound, the “Passage through the blood-brain barrier” value [2] was “can pass through the blood-brain barrier”.
`C=CCN1CC[C@]23c4c5ccc(O)c4O[C@H]2[C@@H](OCCOCCOCCOCCOCCOCCOCCOCCOC)CC[C@@]3(O)[C@H]1C5` [Nal049, mPEG8-(6-α-naloxol)-ether] was tested, and the IC50 [3] was 1050 nM, the inhibition at 10 µM [3] was 94.3 ± 5.39% and the “Average Pain Threshold before Administration (s) Mean ± SD” value ([2]; 4 μmol/kg + Morphine group) was 14.00 ± 7.09 s. The “Percentage of Increase in Pain Threshold” value ([2]; 4 μmol/kg + morphine) was 125.93%, the “Average Pain Threshold after Administration (s) Mean ± SD” value [2, 4] was 31.63 ± 10.04 s and the “Average Pain Threshold before Administration (s) Mean ± SD” value ([2]; 20 μmol/kg + Morphine group) was 13.5 ± 5.07 s. The “Percentage of Increase in Pain Threshold” value ([2]; 20 μmol/kg + morphine) was 91.70%, the “Average Pain Threshold after Administration (s) Mean ± SD” value [2, 5] was 25.88 ± 7.64 s and the “Passage through the blood-brain barrier” value [2] was “cannot pass through the blood-brain barrier”.
For `Oc1ccc2c3c1O[C@H]1[C@@H](OCCOCCOCCO[C@H]4CC[C@@]5(O)[C@H]6Cc7ccc(O)c8c7[C@@]5(CCN6CC5CC5)[C@H]4O8)CC[C@@]4(O)[C@@H](C2)N(CC2CC2)CC[C@]314` [Nal053, PEG3-(6-α-naltrexol)2-ether], the IC50 [3] was 250 nM and the inhibition at 10 µM [3] was 101.8 ± 0.97%.
For `O=C1CC[C@@]2(O)[C@H]3Cc4ccc(O)c5c4[C@@]2(CCN3CC2CC2)[C@H]1O5` [Naltrexone, naltrexone, reference compound], the “Total Number of Diarrhea Times Six Hours” value ([1]; Table 11: 500 μg/kg + Loperamide Hydrochloride + Castor Oil) was 14.00 ± 5.76.
